Results reported in patent US20200308184A1, “TETRAPYRROLIC CONJUGATES AND USES THEREOF FOR IMAGING” (Health Research, Inc., priority 2017, published 2020).
Read-outs that look alike come from different tables or passages of the source.

Tests used:
[1] = published value, 37 C; cited from earlier work
Ward rat tumor = details: HPPH alone, previous findings; cited from earlier work
[2] = T1 and T2 relaxivities of compounds 4, 9 & 14 on 4.7 Tesla preclinical MRI; format: physicochemical; details: T1 relaxivity, 37C, in PBS
Procedure: Characterization of MR imaging efficacy for compounds 4, 9 & 14. MR imaging was performed on a 4.7 Tesla preclinical MRI using the ParaVision 3.0.2 acquisition platform (Bruker Biospin, Billerica Mass.). In vitro relaxivities were acquired using the Bruker G060 gradient insert and a quadrature radiofrequency coil (35 mm ID, m2m Imaging, Cleveland Ohio). In vivo imaging in rat models utilized larger Accustar® shield gradients (150 mm ID) and a quadrature radiofrequency coil (72 mm ID, Bruker Biospin).
T1 and T2 relaxivities for compounds 4, 9 & 14 were acquired at 37C. Samples were diluted in PBS with concentrations ranging from 50 to 200 μM and transferred to NMR tubes for imaging. A tube containing 1× PBS was included as a “0 μM control”. T1 relaxation rates of serial dilutions were measured using an inversion-recovery TrueFISP acquisition with the following parameters: TE/TR=1.5/3.0 ms, flip angle=30°, inv. Repetition time=10 s, segments=8, frames=100. T2 relaxation rates were measured using a multi-echo, Carr-Purcell-Meiboom-Gill (CPMG) spin-echo sequence with a fixed TR of 3000 ms and TE times ranging from 20-1200 ms in 20 ms increments (60 echoes). The relaxation rate of each sample calculated using non-linear regression analysis routines developed in MATLAB (MathWorks, Natick, Mass.) and relaxivities were then calculated by linear regression (concentration vs. relaxation rate).

SMILES | rl at 4.7T [1] [mM/s] | rl at 4.7T [2] [mM/s] | also measured
O=C([O-])CN1CCN(CC(=O)[O-])CCN(CC(=O)O)CCN(CC(=O)[O-])CC1.[Gd+3] [Gd-DOTA] | 2.8 |  | 
O=C([O-])CN(CCN(CC(=O)[O-])CC(=O)O)CCN(CC(=O)[O-])CC(=O)O.[Gd+3] [Gd-DTPA, Gadolinium-diethyline-triamine pentacetic-acid] | 3.2 |  | 
CCCCCCOC(C)c1c(C)c2cc3nc(c4c5[nH]c(cc6nc(cc1[nH]2)C(C)=C6CC)c(C)c5C(=O)C4)[C@@H](CCC(=O)O)[C@@H]3C (some centres unmarked) [HPPH, 3-(1-hexyloxyethyl) pyropheophorbide-a] |  |  | time of peak concentrations (Ward rat tumor): 24 h
CCCCCCOC(C)c1c(C)c2cc3nc(c4c5[nH]c(cc6nc(cc1[nH]2)C(C)=C6CC)c(C)c5C(=O)C4)[C@@H](CCC(=O)NCCNC(=O)CN1CCN(CC(=O)[O-])CCN(CC(=O)[O-])CCN(CC(=O)[O-])CC1)C3C.[Gd+3] (some centres unmarked) [compound 4] |  | 4.44 | 
CCCCCCOC(C)c1c(C)c2cc3nc(c4c5[nH]c(cc6nc(cc1[nH]2)C(C)=C6CC)c(C)c5C(=O)C4)[C@@H](CCC(=O)N(CC(=O)NCCNC(=O)CN1CCN(CC(=O)[O-])CCN(CC(=O)[O-])CCN(CC(=O)[O-])CC1)CC(=O)NCCNC(=O)CN1CCN(CC(=O)[O-])CCN(CC(=O)[O-])CCN(CC(=O)[O-])CC1)C3C.[Gd+3].[Gd+3] (some centres unmarked) [compound 9] |  | 10.65 | 
